Data on 63 molecules can be found in patent US12581252B2, “Substituted pyrrolo[3,4-b]pyridines as PI3K-α inhibitors” (Relay Therapeutics, Inc., priority 2020, dated 2026).

A word on the IC50: it is the concentration that inhibits the measured activity by half.

For this assay, the target named is H1047R PIK3CA enzyme (Homo sapiens, UniProt P42336, H1047R). Briefly: ADP-Glo Biochemical PIK3CA Kinase Assay.
H1047R PIK3CA enzyme, sequence (P42336 whole entry H1047R): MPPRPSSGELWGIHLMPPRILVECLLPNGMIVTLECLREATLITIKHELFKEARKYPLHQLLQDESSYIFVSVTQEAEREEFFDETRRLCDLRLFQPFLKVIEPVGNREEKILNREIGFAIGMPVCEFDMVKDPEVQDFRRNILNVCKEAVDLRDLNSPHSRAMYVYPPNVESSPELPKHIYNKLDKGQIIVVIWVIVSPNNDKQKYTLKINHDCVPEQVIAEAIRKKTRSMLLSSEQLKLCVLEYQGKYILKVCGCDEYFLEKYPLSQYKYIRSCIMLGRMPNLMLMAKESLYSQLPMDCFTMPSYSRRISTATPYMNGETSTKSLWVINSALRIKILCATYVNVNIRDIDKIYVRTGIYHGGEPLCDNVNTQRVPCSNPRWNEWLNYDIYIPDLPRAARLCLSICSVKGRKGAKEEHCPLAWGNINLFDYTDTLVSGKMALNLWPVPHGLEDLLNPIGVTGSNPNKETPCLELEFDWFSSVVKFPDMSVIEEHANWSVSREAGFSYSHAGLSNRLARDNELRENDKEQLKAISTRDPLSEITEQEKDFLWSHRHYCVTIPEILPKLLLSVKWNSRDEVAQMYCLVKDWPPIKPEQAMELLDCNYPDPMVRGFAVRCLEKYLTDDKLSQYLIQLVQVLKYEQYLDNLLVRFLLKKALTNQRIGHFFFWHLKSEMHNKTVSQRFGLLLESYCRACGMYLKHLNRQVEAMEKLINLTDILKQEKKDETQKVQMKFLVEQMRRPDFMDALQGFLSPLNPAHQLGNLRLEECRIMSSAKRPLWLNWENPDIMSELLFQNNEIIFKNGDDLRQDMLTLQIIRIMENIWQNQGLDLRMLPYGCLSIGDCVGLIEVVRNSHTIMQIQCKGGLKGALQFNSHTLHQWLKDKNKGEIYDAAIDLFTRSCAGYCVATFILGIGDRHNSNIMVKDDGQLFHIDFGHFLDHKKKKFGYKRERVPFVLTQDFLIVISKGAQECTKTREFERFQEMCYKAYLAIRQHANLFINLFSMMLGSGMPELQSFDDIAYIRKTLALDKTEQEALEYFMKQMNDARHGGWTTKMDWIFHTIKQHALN
H1047R PIK3CA enzyme, sequence (P27986 whole entry partner): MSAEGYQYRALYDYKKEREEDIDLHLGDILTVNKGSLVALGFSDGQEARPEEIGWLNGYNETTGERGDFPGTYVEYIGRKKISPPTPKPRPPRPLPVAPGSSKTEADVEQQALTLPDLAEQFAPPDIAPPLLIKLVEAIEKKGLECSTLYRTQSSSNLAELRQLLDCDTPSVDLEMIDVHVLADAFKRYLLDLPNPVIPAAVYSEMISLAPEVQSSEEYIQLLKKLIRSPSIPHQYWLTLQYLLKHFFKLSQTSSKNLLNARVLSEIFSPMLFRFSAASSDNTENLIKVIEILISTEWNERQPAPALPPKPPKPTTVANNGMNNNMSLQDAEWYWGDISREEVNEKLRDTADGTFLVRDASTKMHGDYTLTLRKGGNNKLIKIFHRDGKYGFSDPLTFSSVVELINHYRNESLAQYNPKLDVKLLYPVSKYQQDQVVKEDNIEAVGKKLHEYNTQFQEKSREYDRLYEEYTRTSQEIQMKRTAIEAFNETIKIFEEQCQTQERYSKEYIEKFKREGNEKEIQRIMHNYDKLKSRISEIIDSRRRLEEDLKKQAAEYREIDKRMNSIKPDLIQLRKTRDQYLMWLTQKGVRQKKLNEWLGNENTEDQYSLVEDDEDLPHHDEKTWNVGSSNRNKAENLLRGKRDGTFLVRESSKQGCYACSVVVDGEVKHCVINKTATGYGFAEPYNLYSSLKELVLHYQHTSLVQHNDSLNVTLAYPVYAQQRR
As for `O=C1NC(c2cc(F)ccc2Cl)c2c(NCc3ccccc3)cc(Br)cc21` (stereo not drawn) [Compound I-1658], the IC50 was 10 to 100 µM. The figure for `O=C1NC(c2cc(F)ccc2Cl)c2c(Nc3nc4ccccc4s3)cc(-c3ccc4ncnn4c3)cc21` (stereo not drawn) [Compound I-1659] is 0.1 to 0.5 µM. The figure for `CC(C)(C#N)n1cc(-c2cc(NC(=O)c3cc(F)cc(C(F)(F)F)c3)c3c(c2)C(=O)N[C@@H]3c2cc(F)ccc2Cl)cn1` [Compound I-1660] is 0.5 to 1 µM; for `CC(C)OC(C(=O)Nc1cc(-c2ccc3ncnn3c2)cc2c1C(c1cc(F)ccc1Cl)NC2=O)c1ccccc1` (stereo not drawn) [Compound I-1662] it is 1 to 10 µM. To `O=C1NC(c2cc(F)ccc2Cl)c2c(NC(=O)N3CCCCC3)cc(-c3ccc4ncnn4c3)cc21` (stereo not drawn) [Compound I-1663] belongs 1 to 10 µM.

Molecule `O=C1NC(c2cc(F)ccc2Cl)c2c(NC(=O)C3CC(O)C3)cc(-c3ccc4ncnn4c3)cc21` (stereo not drawn) [Compound I-1664] returned an IC50 of 10 to 100 µM. To `O=C(Cc1ccccc1)Nc1cc(-c2ccc3ncnn3c2)cc2c1C(c1cc(F)ccc1Cl)NC2=O` (stereo not drawn) [Compound I-1665] belongs 10 to 100 µM. To `O=C(Nc1cccc2c1C(CO)NC2=O)c1cc(F)cc(C(F)(F)F)c1` (stereo not drawn) [Compound I-1666] belongs 10 to 100 µM; to `O=C(Nc1cc(-c2ccc3ncnn3c2)c(Cl)c2c1C(c1cc(F)ccc1Cl)NC2=O)c1cc(F)cc(C(F)(F)F)c1` (stereo not drawn) [Compound I-1667], ≤ 0.1 µM; to `O=C1NC(c2cc(F)ccc2Cl)c2c(Nc3cn4ccccc4n3)cc(-c3ccc4ncnn4c3)cc21` (stereo not drawn) [Compound I-1668], 1 to 10 µM. The figure for `O=C(Nc1cc(-c2ccn3nccc3c2)cc2c1C(c1cc(F)ccc1Cl)NC2=O)c1cc(F)cc(C(F)(F)F)c1` (stereo not drawn) [Compound I-1669] is ≤ 0.1 µM. `O=C(Nc1cc(-c2ccn3nncc3c2)cc2c1C(c1cc(F)ccc1Cl)NC2=O)c1cc(F)cc(C(F)(F)F)c1` (stereo not drawn) [Compound I-1670]: the IC50 is ≤ 0.1 µM. The figure for `Nc1cc(-c2ccc3ncnn3c2)cc2c1C(c1cc(F)ccc1Cl)NC2=O` (stereo not drawn) [Compound I-1671] is 10 to 100 µM; for `O=C1NC(c2cc(F)ccc2Cl)c2c(Br)cc(-c3ccc4ncnn4c3)cc21` (stereo not drawn) [Compound I-1672] it is 10 to 100 µM; for `O=C(Nc1cccc2c1C(Cc1ccccc1)NC2=O)c1cc(F)cc(C(F)(F)F)c1` (stereo not drawn) [Compound I-1673] it is 10 to 100 µM.

Consider `CC(=O)N1CCCCC1C1NC(=O)c2cccc(NC(=O)c3cc(F)cc(C(F)(F)F)c3)c21` (stereo not drawn) [Compound I-1674], for which the IC50 fell in the range of 10 to 100 µM. To `O=C(Nc1cccc2c1C(C1CCCCN1)NC2=O)c1cc(F)cc(C(F)(F)F)c1` (stereo not drawn) [Compound I-1675] belongs 1 to 10 µM; to `O=C(Nc1cc(-c2ccc3nnc(Cl)n3c2)cc2c1[C@@H](c1cc(F)ccc1Cl)NC2=O)c1cc(F)cc(C(F)(F)F)c1` [Compound I-1676], 0.1 to 0.5 µM; to `O=C(Nc1cc(-c2ccn3ncnc3n2)cc2c1C(c1cc(F)ccc1Cl)NC2=O)c1cc(F)cc(C(F)(F)F)c1` (stereo not drawn) [Compound I-1677], ≤ 0.1 µM. On to `O=C(Nc1cccc2c1C(CN1CCCCC1)NC2=O)c1cc(F)cc(C(F)(F)F)c1` (stereo not drawn) [Compound I-1678], for which the IC50 lay in the range of 10 to 100 µM.

In turn, `O=C1NC(c2cc(F)ccc2Cl)c2c(Nc3cc4ccccn4n3)cc(-c3ccc4ncnn4c3)cc21` (stereo not drawn) [Compound I-1679] displayed a half-maximal inhibitory concentration (IC50) of 10 to 100 µM. To `O=C1NC(c2cc(F)ccc2Cl)c2c(NC(=O)C3CCCCC3)cccc21` (stereo not drawn) [Compound I-1680] belongs 1 to 10 µM. As for `O=C(Nc1cccc2c1C(c1cc(F)ccc1Cl)NC2=O)c1ccccc1` (stereo not drawn) [Compound I-1681], the IC50 lay within 10 to 100 µM.

In the case of `O=C1NC(c2cc(F)ccc2Cl)c2c(Nc3cccc4ccccc34)cc(Br)cc21` (stereo not drawn) [Compound I-1682], the IC50 was in the range of 1 to 10 µM. To `O=C1NC(c2cc(F)ccc2Cl)c2c(Nc3cc4ccccc4cn3)cc(Br)cc21` (stereo not drawn) [Compound I-1683] belongs 10 to 100 µM. To `O=C1N[C@H](c2cc(F)ccc2Cl)c2c(NC(=O)c3csc4ccccc34)cc(-c3ccc4ncnn4c3)cc21` [Compound I-1685] belongs 1 to 10 µM; to `O=C1NC(c2cc(F)ccc2Cl)c2c(NC(=O)c3cc(F)cc4c(Cl)n[nH]c34)cc(Br)cc21` (stereo not drawn) [Compound I-1686], 1 to 10 µM; to `O=C(COc1ccccc1)Nc1cc(-c2ccc3ncnn3c2)cc2c1C(c1cc(F)ccc1Cl)NC2=O` (stereo not drawn) [Compound I-1688], 10 to 100 µM. Regarding `O=C1NC(c2cc(F)ccc2Cl)c2c(NC(=O)C3CC(C(F)(F)F)CCN3)cc(Br)cc21` (stereo not drawn) [Compound I-1689], the IC50 is 10 to 100 µM. As for `O=C1NC(c2cc(F)ccc2Cl)c2c(NC(=O)C3CCC(O)CC3)cc(-c3ccc4ncnn4c3)cc21` (stereo not drawn) [Compound I-1690], the IC50 lay within 10 to 100 µM. `O=C1NC(c2cc(F)ccc2Cl)c2c(Nc3coc4ccccc34)cc(Br)cc21` (stereo not drawn) [Compound I-1691] gave an IC50 of 1 to 10 µM.

`O=C(Nc1cc(-c2ccc3nc(Cl)nn3c2)cc2c1[C@@H](c1cc(F)ccc1Cl)NC2=O)c1cc(F)cc(C(F)(F)F)c1` [Compound I-1692] came in with an IC50 of 1 to 10 µM. To `O=C(Nc1cc(-c2ccc3nc(Cl)nn3c2)cc2c1[C@H](c1cc(F)ccc1Cl)NC2=O)c1cc(F)cc(C(F)(F)F)c1` [Compound I-1693] belongs ≤ 0.1 µM; to `O=C(Nc1cc(-c2ccc3ncc(Cl)n3c2)cc2c1C(c1cc(F)ccc1Cl)NC2=O)c1cc(F)cc(C(F)(F)F)c1` (stereo not drawn) [Compound I-1694], ≤ 0.1 µM; to `O=C(Nc1cc(-c2ccn3nc(Cl)nc3c2)cc2c1[C@@H](c1cc(F)ccc1Cl)NC2=O)c1cc(F)cc(C(F)(F)F)c1` [Compound I-1695], 1 to 10 µM. In the case of `O=C(Nc1cc(-c2ccc3nc(Cl)cn3c2)cc2c1C(c1cc(F)ccc1Cl)NC2=O)c1cc(F)cc(C(F)(F)F)c1` (stereo not drawn) [Compound I-1696], the IC50 is ≤ 0.1 µM. With `O=C(Nc1cc(-c2ccn3nc(Cl)nc3c2)cc2c1[C@H](c1cc(F)ccc1Cl)NC2=O)c1cc(F)cc(C(F)(F)F)c1` [Compound I-1697], the IC50 is ≤ 0.1 µM.

On to `O=C(Nc1cc(-c2ccn3ncnc3c2F)cc2c1C(c1cc(F)ccc1Cl)NC2=O)c1cc(F)cc(C(F)(F)F)c1` (stereo not drawn) [Compound I-1698], for which the IC50 is ≤ 0.1 µM. To `Cn1ncc(-c2cc(NC(=O)c3cc(F)cc(C(F)(F)F)c3)c3c(c2)C(=O)NC3c2cc(F)ccc2Cl)c1C#N` (stereo not drawn) [Compound I-1699] belongs ≤ 0.1 µM; to `COc1cc2ncnn2cc1-c1cc(NC(=O)c2cc(F)cc(C(F)(F)F)c2)c2c(c1)C(=O)NC2c1cc(F)ccc1Cl` (stereo not drawn) [Compound I-1700], ≤ 0.1 µM. The figure for `O=C(Nc1cc(-c2cc(F)c3ncnn3c2)cc2c1[C@@H](c1cc(F)ccc1Cl)NC2=O)c1cc(F)cc(C(F)(F)F)c1` [Compound I-1703] is 10 to 100 µM; for `O=C(Nc1cc(-c2cc(F)c3ncnn3c2)cc2c1[C@H](c1cc(F)ccc1Cl)NC2=O)c1cc(F)cc(C(F)(F)F)c1` [Compound I-1704] it is ≤ 0.1 µM; for `O=C(Nc1cc(-c2ccc3ncnn3c2)nc2c1C(C1CCOCC1)NC2=O)c1cc(F)cc(C(F)(F)F)c1` (stereo not drawn) [Compound I-1705] it is 10 to 100 µM.

`O=C(Nc1cc(-c2ccc3ncnn3c2)nc2c1C(C1CCCCO1)NC2=O)c1cc(F)cc(C(F)(F)F)c1` (stereo not drawn) [Compound I-1706]: the IC50 lay within 10 to 100 µM. The figure for `N#Cc1nc2ccc(-c3cc(NC(=O)c4cc(F)cc(C(F)(F)F)c4)c4c(c3)C(=O)NC4c3cc(F)ccc3Cl)cn2n1` (stereo not drawn) [Compound I-1707] is ≤ 0.1 µM; for `N#Cc1nnc2ccc(-c3cc(NC(=O)c4cc(F)cc(C(F)(F)F)c4)c4c(c3)C(=O)NC4c3cc(F)ccc3Cl)cn12` (stereo not drawn) [Compound I-1708] it is ≤ 0.1 µM.

`O=C1NC(c2cc(F)ccc2Cl)c2c1cccc2-n1[nH]c(=O)c2ccccc21` (stereo not drawn) [Compound I-1714] gave an IC50 of 10 to 100 µM. The figure for `O=C1NC(c2cc(F)ccc2Cl)c2c(NC(=O)N3CCc4ccc(F)cc43)cc(Br)cc21` (stereo not drawn) [Compound I-1717] is ≤ 0.1 µM.

For `O=C1NC(c2cc(F)ccc2Cl)c2c(NC(=O)N3CCC(O)C3)cc(-c3ccc4ncnn4c3)cc21` (stereo not drawn) [Compound I-1718], the IC50 lay in the range of 10 to 100 µM. The figure for `N#Cc1cn(Cc2cc(NC(=O)c3cc(F)cc(C(F)(F)F)c3)c3c(c2)C(=O)NC3c2cc(F)ccc2Cl)cn1` (stereo not drawn) [Compound I-1719] is ≤ 0.1 µM. The figure for `O=C1NC(c2cc(F)ccc2Cl)c2c(NC(=O)N3CCCC3)cc(-c3ccc4ncnn4c3)cc21` (stereo not drawn) [Compound I-1720] is 10 to 100 µM; for `O=C1NC(c2cc(F)ccc2Cl)c2c(NC(=O)N3CCCC(O)C3)cc(-c3ccc4ncnn4c3)cc21` (stereo not drawn) [Compound I-1721] it is 10 to 100 µM; for `O=C1NC(c2cc(F)ccc2Cl)c2c(NC(=O)N3CCC4(C3)CC4(F)F)cc(-c3ccc4ncnn4c3)cc21` (stereo not drawn) [Compound I-1722] it is 1 to 10 µM. `O=C1NC(c2cc(F)ccc2Cl)c2c(NC(=O)C3CCCC(O)C3)cc(-c3ccc4ncnn4c3)cc21` (stereo not drawn) [Compound I-1723] showed an IC50 of 10 to 100 µM. The figure for `O=C1NC(c2cc(F)ccc2Cl)c2c(NC(=O)C(O)c3ccccc3)cc(-c3ccc4ncnn4c3)cc21` (stereo not drawn) [Compound I-1724] is 10 to 100 µM; for `O=C1NC(c2cc(F)ccc2Cl)c2c(Nc3ccc4ccccc4c3)cc(Br)cc21` (stereo not drawn) [Compound I-1725] it is 1 to 10 µM. The figure for `O=C1NC(c2cc(F)ccc2Cl)c2c(NCC3CCCCC3)cc(Br)cc21` (stereo not drawn) [Compound I-1726] is 10 to 100 µM; for `O=C1NC(c2cc(F)ccc2Cl)c2c(Nc3nc4ccccc4[nH]3)cc(-c3ccc4ncnn4c3)cc21` (stereo not drawn) [Compound I-1727] it is 1 to 10 µM; for `O=C1NC(c2cc(F)ccc2Cl)c2c(CS(=O)(=O)c3ccccc3)cc(-c3ccc4ncnn4c3)cc21` (stereo not drawn) [Compound I-1728] it is 10 to 100 µM. The figure for `O=C1NC(c2cc(F)ccc2Cl)c2c1cc(-c1ccc3ncnn3c1)cc2-c1ccc2ccccc2c1` (stereo not drawn) [Compound I-1729] is 1 to 10 µM; for `O=C(Nc1cc(-c2ccc3ncnn3c2)cc2c1C(c1cc(F)ccc1Cl)NC2=O)C(=O)c1ccccc1` (stereo not drawn) [Compound I-1730] it is 1 to 10 µM; for `O=C(Nc1cccc2c1C(C1CCC1)NC2=O)c1cc(F)cc(C(F)(F)F)c1` (stereo not drawn) [Compound I-1731] it is 10 to 100 µM.

For the molecule `O=C(Nc1cccc2c1C(CC1CCCCC1)NC2=O)c1cc(F)cc(C(F)(F)F)c1` (stereo not drawn) [Compound I-1732], the IC50 fell in the range of 1 to 10 µM.
